Here are results for four compounds from patent US11673323B2, “Fluorescent binders for use in monitoring additive manufacturing processes” (General Electric Company, priority 2020, dated 2023).

This data set can be described thus: Solubility of neat fluorescent dye in water-based PVA/PAA binder solution. The note with it: 0.5 wt % fluorescent dye in binder solution (PVA, PAA, ethylene glycol, ethylene glycol butyl ether, water), stirred at 50-70° C. As for the experimental part: To determine whether neat dyes (e.g., unencapsulated) could be incorporated into binder solutions, various fluorescent materials were added to a binder solution including 1-7 wt % PVA, 0.5-3 wt % PAA, 2-6 wt % ethylene glycol, 4-10 wt % ethylene glycol butyl ether, and the balance water to form Samples F-H, and Comparative Samples 1-5. In particular, from 0.2-0.5 wt % of the fluorescent material (DayGlo, UMCCorp, Aldrich) was added to the binder solution and stirred on a hot plate at 50-70° C. to dissolve the dye into the binder solution.

Entries after “also recorded” stand apart in the source; their conditions may differ.

On to `O=S(=O)([O-])c1ccccc1C=Cc1ccc(-c2ccc(C=Cc3ccccc3S(=O)(=O)[O-])cc2)cc1.[Na+].[Na+]` [FB 351], for which the “Solubility at 0.5 wt %” value is “Soluble”. Moreover, the “Solubility at 0.5 wt %” value (listed as Sample H) is reported as “fully soluble; also recorded: good solubility”.

For the compound `CCCN(CCO)c1nc(Nc2ccccc2)nc(Nc2ccc(/C=C/c3ccc(Nc4nc(Nc5ccccc5)nc(N(CCO)CCO)n4)cc3S(=O)(=O)[O-])c(S(=O)(=O)[O-])c2)n1.[Na+].[Na+]` [FB 28], the “Solubility at 0.5 wt %” value was “Partially soluble −”. Still for that read-out and setting: next, `CCCN(CCC)c1nc(Nc2ccccc2)nc(Nc2ccc(/C=C/c3ccc(Cc4nc(Cc5ccccc5)nc(N(OCC)OCC)n4)cc3S(=O)(=O)[O-])c(S(=O)(=O)[O-])c2)n1.[Na+].[Na+]` [FB 113]: “Partially soluble −”. On the same count and under the same terms, next, `O=S(=O)([O-])c1cc(Nc2nc(CCO)nc(Nc3ccccc3)n2)ccc1/C=C/c1ccc(Nc2nc(NCO)nc(Nc3ccccc3)n2)cc1S(=O)(=O)[O-].[Na+].[Na+]` [FB 85]: “Partially soluble −”.
